How the values were obtained:
O=C[C@H](O)COP(=O)(O)O = assay: steady-state kinetics of isomerization; format: biochemical, Trypanosoma brucei; conditions: active site; pH 7.5; 25.0 °C
[1] = target: T1, triosephosphate isomerase (TbbTIM) (Trypanosoma brucei, UniProt P04789, I172A/L232A); assay: X-ray crystal structure; format: biochemical
[2] = target: T1, triosephosphate isomerase (TbbTIM); assay: activation of [[…]-13C]-glycolaldehyde turnover followed by 1H NMR, fit to give Kd; format: biochemical

triosephosphate isomerase (TbbTIM) (Trypanosoma brucei brucei; I172A/L232A)
kcat/Km (O=C[C@H](O)COP(=O)(O)O): 350000 M⁻¹ s⁻¹

O=C(O)COP(=O)(O)O [PGA, 2-phosphoglycolate]
Ki [1]: 0.12 mM

O=[PH](O)O [HPi, phosphite dianion]
Kd [2]: 5.9 ± 0.5 mM

From PMC4934371 (Biochemistry, 2016)
